Experimental data: patent publication US20210047622A1, “METHOD FOR OBTAINING AN ANIMAL MODEL FROM CONDITIONALLY REPROGRAMMED CELLS AND USE OF THE ANIMAL MODEL FOR SCREEING ANTI-TUMOR DRUGS” (Shanghai Lide Biotech Co., Ltd., priority 2018, published 2021)
Where “and” joins values, the source holds several entries; their conditions need not be identical. Equal entries are not always repeated.

What was measured:
Assay type in all cases: in vivo, human
[1] = tested on: MDX203 Mini-PDX models (conditional reprogramming cells from a gallbladder carcinoma patient); experiment: Anti-tumor efficacy in MDX203 Mini-PDX model; settings: Mini-PDX devices s.c. in nude mice, CTG cell viability day 7, doses, routes and schedules per Table 15
Description: (§2) Conditional reprogramming cells from MDX133, MDX154, MDX164, MDX165, MDX168, MDX169, MDX174, MDX186, MDX189, MDX203 were collected separately. MDX133 originated from a gastric cancer patient, MDX154 model originated from a gallbladder carcinoma patient, MDX164 model originated from a glioblastoma patient, MDX165 model originated from a glioblastoma patient, MDX168 model originated from a gallbladder carcinoma patient, MDX169 model originated from a lung cancer patient, MDX174 model originated from a lung cancer patient, MDX186 model originated from a pancreatic cancer patient, MDX189 model originated from a esophagus cancer patient, MDX203 model originated from a gallbladder carcinoma patient.
(§3) Wash the tumor tissue sample with buffer solution and remove away non-tumor tissue and necrotic tumor tissue in biosafety cabinet. Cut the tumor into 1˜3 mm3 fragments, suspend pellet with 1× collagenase solution and incubate in 37° C. for 1-2 hours. Collect single cells through 70 uM strainer, count cell numbers to calculate tumor cell concentration (See 9. Tumor cell concentration obtained from surgery and biopsy/needle biopsy). Cultivate the cells with conditional reprogramming medium, after tumor cells proliferation, and harvest the conditional reprogramming cells.
(§4) Suspend tumor tissues obtained from biopsy/needle biopsy in 1× collagenase solution and incubate in 37° C. for 1-2 hours. Collect single cells through 70 uM strainer, count cell numbers to calculate tumor cell concentration (See 9. Tumor cell concentration obtained from surgery and biopsy/needle biopsy). Cultivate the cells with conditional reprogramming medium, after tumor cells proliferation, and harvest the conditional reprogramming cells.
(§5) The cells suspension was filled into Mini-PDX device and the devices were inoculated subcutaneously into both flanks of Nu/Nu-nude mice, to establish the Mini-PDX model. The inoculation day was defined as day 0. Mice were randomized in groups according to the bodyweights and the treatments were initiated at day 0.
(§6) • 6.4.1 Body weight were measured every day, the treatment periods of these studies were 7 days, at the termination, all mice were euthanized and the Mini-PDX devices were removed for CTG (cell viability) assay. Tumor relative proliferation rate (%) is the indication of the anti-tumor activity. • 6.4.2 When VCd7−Vd0>0, Tumor relative proliferation rate (%)=(VTd7−Vd0)/(VCd7−Vd0)×100%; When VCd7−Vd0<0, Tumor relative proliferation rate (%)=VTd7/VCd7×100% (VTd7: the cell viability on day 7 of treatment group; VCd7: the cell viability on day 7 of control group; Vdo: the cell viability on day 0).

[2] = tested on: MDX095 Mini-PDX models (conditional reprogramming cells from a peritoneal malignant tnesoshelioma patient); experiment: Anti-tumor efficacy in MDX095 Mini-PDX model; settings: Mini-PDX devices s.c. in nude mice, CTG cell viability day 7, i.p., doses and schedules per Table 3
Description: Conditional reprogramming cells from […]123 were collected separately. […] The inoculation day was defined as day 0.

[3] = tested on: MDX154 Mini-PDX models (conditional reprogramming cells from a gallbladder carcinoma patient); experiment: Anti-tumor efficacy in MDX154 Mini-PDX model; settings: Mini-PDX devices s.c. in nude mice, CTG cell viability day 7, doses, routes and schedules per Table 7
Description: (§1) The inoculation day was defined as day 0.

[4] = tested on: MDX123 Mini-PDX models (conditional reprogramming cells from a colonrectal cancer patient); experiment: Anti-tumor efficacy in MDX123 Mini-PDX model; settings: Mini-PDX devices s.c. in nude mice, CTG cell viability day 7, i.p., doses and schedules per Table 5
Description: as §1

[5] = tested on: MDX133 Mini-PDX models (conditional reprogramming cells from a gastric cancer patient); experiment: Anti-tumor efficacy in MDX133 Mini-PDX model; settings: Mini-PDX devices s.c. in nude mice, CTG cell viability day 7, doses, routes and schedules per Table 6
Description: as §2, §3, §4, §5, §6

[6] = tested on: MDX168 Mini-PDX models (conditional reprogramming cells from a gallbladder carcinoma patient); experiment: Anti-tumor efficacy in MDX168 Mini-PDX model; settings: Mini-PDX devices s.c. in nude mice, CTG cell viability day 7, doses, routes and schedules per Table 10
Description: as §2, §3, §4, §5, §6

[7] = tested on: MDX186 Mini-PDX models (conditional reprogramming cells from a pancreatic cancer patient); experiment: Anti-tumor efficacy in MDX186 Mini-PDX model; settings: Mini-PDX devices s.c. in nude mice, CTG cell viability day 7, doses, routes and schedules per Table 13
Description: as §2, §3, §4, §5, §6

[8] = tested on: MDX165 Mini-PDX models (conditional reprogramming cells from a glioblastoma patient); experiment: Anti-tumor efficacy in MDX165 Mini-PDX model; settings: Mini-PDX devices s.c. in nude mice, CTG cell viability day 7, 50 mg/kg p.o. qd*5
Description: as §1

[9] = tested on: MDX164 Mini-PDX models (conditional reprogramming cells from a glioblastoma patient); experiment: Anti-tumor efficacy in MDX164 Mini-PDX model; settings: Mini-PDX devices s.c. in nude mice, CTG cell viability day 7, 50 mg/kg p.o. qd*5
Description: as §1

Molecule | T/C % (Tumor relative proliferation rate) [1] | T/C % (Tumor relative proliferation rate) [2] | T/C % (Tumor relative proliferation rate) [3] | T/C % (Tumor relative proliferation rate) [4] | T/C % (Tumor relative proliferation rate) [5] | T/C % (Tumor relative proliferation rate) [6] | T/C % (Tumor relative proliferation rate) [7] | also measured
O=c1[nH]cc(F)c(=O)[nH]1 [5-Fu] | 83% | 80% | 111% | 75% | 103% | 146% | 90% | 
N.N.[Cl][Pt][Cl] [Cisplatin] |  | 128% |  |  |  |  |  | 
COc1cccc2c1C(=O)c1c(O)c3c(c(O)c1C2=O)C[C@@](O)(C(=O)CO)C[C@@H]3O[C@H]1C[C@H](N)[C@@H](O)[C@H](C)O1 [Epirubicin] |  | 120% |  |  |  |  |  | 
COc1cc([C@@H]2c3cc4c(cc3[C@@H](O[C@@H]3O[C@@H]5CO[C@@H](C)O[C@H]5[C@H](O)[C@H]3O)[C@H]3COC(=O)[C@H]23)OCO4)cc(OC)c1O [Etoposide] |  | 109% |  |  |  |  |  | 
Nc1ccn([C@@H]2O[C@H](CO)[C@@H](O)C2(F)F)c(=O)n1 [Gemcitabine] | 77% |  | 100% |  |  | 53% | 83% | 
CCc1c2c(nc3ccc(OC(=O)N4CCC(N5CCCCC5)CC4)cc13)-c1cc3c(c(=O)n1C2)COC(=O)[C@]3(O)CC [Irinotecan] | 48% |  | 227% | 68% | 72% | 12% | 5% | 
O=C1[O][Pt]2([NH][C@@H]3CCCC[C@H]3[NH]2)[O]C1=O [Oxaliplatin] | 43% |  | 174% | 61% | 89% | 75% | 47% | 
CC(=O)O[C@H]1C(=O)[C@@]2(C)[C@H]([C@H](OC(=O)c3ccccc3)[C@]3(O)C[C@H](OC(=O)[C@H](O)[C@@H](NC(=O)c4ccccc4)c4ccccc4)C(C)=C1C3(C)C)[C@]1(OC(C)=O)CO[C@@H]1C[C@@H]2O [Paclitaxel] |  | 79% |  |  | 52% |  |  | 
Cc1nc2ccc(CN(C)c3ccc(C(=O)N[C@@H](CCC(=O)O)C(=O)O)s3)cc2c(=O)[nH]1 [Raltitrexed] |  |  |  | 92% |  |  |  | 
Cn1nnc2c(C(N)=O)ncn2c1=O [Temozolomide] |  |  |  |  |  |  |  | T/C % (Tumor relative proliferation rate) [8]: 29%; T/C % (Tumor relative proliferation rate) [9]: 102%
Bevazulimab: Test drug of the MDX123 groups, printed Bevacizumab in Table 5 |  |  |  | 76% and 101% |  |  |  | 
